Experiments:
[1] = Multiplex bioanalytics profiling of plasma lipids in drug-dosed rats (Example 1); format: in vivo, rat; conditions: 7 days
Experimental: Multiplex bioanalytics profiling can elucidate novel pharmacological actions of drugs via measurement of hundreds of disease-relevant biomolecules in biofluids collected from drug-dosed animals. Romazarit was evaluated via a full multiplex bioanalytics profiling study.
In an initial experiment, two dose groups of six animals per group received either 5 or 50 mg/kg b.i.d., and a further group received vehicle only, as a control. A follow-up experiment was performed to explore dose-response and the selected doses were 15 and 50 mg/kg b.i.d., again plus control.
In both experiments, urine was collected from each animal by clean-catch after the final dose on day 7, and cerebrospinal fluid (CSF) and plasma were collected (terminal samples) on day 8. Aliquots of the CSF and plasma samples from each individual were submitted for LC-MS analyses of bioanalytes. Three different separation methods were run, with MS analyses in both positive and negative ion modes, to enable resolution of relative quantification of the bioanalytes. These methods included: • RP-I: LC-MS of polar and non-polar abundant lipids (e.g., individual cholesterol esters, triglycerides, diacylglycerols, phospholipids, lysophospholipids); • RP-II: LC-MS of lower abundance bioanalytes (e.g., eicosanoids & other lipid mediators, fatty acids, oxidized fatty acids, bile acids, conjugated bile acids); • PLR: LC-MS of polar compounds (e.g., catecholamines & serotonin pathway, amino acids, organic acids, sugars).

[2] = Diabetic-prone (db/db) mouse model with high-fat diet (Example 7); format: in vivo; conditions: db/db mice, high-fat diet, 15, 50 and 100 mg/kg once daily
Experimental: The fibrate PPARα agonist fenofibrate (50 mg/kg) and the PPARγ agonist rosiglitazone (10 mg/kg) were used as reference controls for the study.

[3] = Plasma lipids, lipoproteins and liver weight in normal rats versus fibrates (Example 8); format: in vivo, rat; conditions: once daily p.o. 7 days
Source text: (§1) The study design was based on the protocols used in Examples 1-3. Male Sprague-Dawley rats were provided normal chow ad libitum, both before and during the study period. […] Six rats were assigned to each treatment group (8 to the vehicle control). The study terminated on the day following administration of the seventh dose (day 8), with terminal blood collected for plasma lipid and lipoprotein analyses including LC-MS-based determination of lipid profiles, total and free cholesterol analyses, and lipoprotein cholesterol determinations (VLDL, LDL and HDL).
In order to elucidate the impact of romazarit on plasma lipoproteins, an ultraviolet (UV) size exclusion chromatography (SEC) system was used to separate plasma into broad lipoprotein-containing fractions that were based on relative retention times of human VLDL (very low density lipoprotein), LDL (low density lipoprotein), and HDL (high density lipoprotein) standards. These fractions were collected for cholesterol assays and the UV chromatograms were integrated to provide relative quantitation of the three lipoprotein types. It is important to note that since the UV absorbance measurement is not specific for lipoproteins and may also derive from other plasma constituents that co-elute with a particular lipoprotein, the relative quantitation data reported here is an approximation. The HDL fraction in particular may have included such co-eluting species, as evidenced by the relatively high integrated area values for this fraction.

[4] = Metabolic parameters / indicators of insulin sensitivity in normal rats (Example 9); format: in vivo, rat
Source text: as §1, with “Male” for “The study design was based on the protocols used in Examples 1-3. Male”
Adiponectin is an insulin-sensitizing protein that is abundantly expressed in adipocytes and is secreted into the circulation (see review by Lara-Castro et al. (2007) cited above).

rat PPARα = target: T1, rat PPARα (Rattus norvegicus, UniProt P37230); test: PPARRE-luciferase reporter in HepG2 cells transfected with rat PPARα; format: cell-based; conditions: retinoic acid 200 nM, read-out: EC50 activation of rat PPARα (rPPARα)
T1 construct: expressed in transfected cells; host or cells: HepG2
T1 sequence (P37230 1-468): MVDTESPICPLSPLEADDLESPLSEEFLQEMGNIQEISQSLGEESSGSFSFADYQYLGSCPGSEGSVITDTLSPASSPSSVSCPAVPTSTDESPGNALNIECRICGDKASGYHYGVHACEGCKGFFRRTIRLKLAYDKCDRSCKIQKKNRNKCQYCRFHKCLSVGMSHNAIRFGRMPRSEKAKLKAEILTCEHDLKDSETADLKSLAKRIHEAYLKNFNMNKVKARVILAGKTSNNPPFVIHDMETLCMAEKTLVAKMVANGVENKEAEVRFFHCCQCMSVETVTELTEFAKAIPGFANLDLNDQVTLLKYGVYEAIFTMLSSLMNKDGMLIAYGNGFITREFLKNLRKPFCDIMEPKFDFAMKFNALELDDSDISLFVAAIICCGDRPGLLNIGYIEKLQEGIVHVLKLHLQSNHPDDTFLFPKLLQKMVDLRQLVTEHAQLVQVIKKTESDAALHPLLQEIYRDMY
Experimental: For this study, a luciferase reporter plasmid containing 5 copies of a defined genetic regulatory PPARα response element (PPARRE) was utilized to detect romazarit-induced PPARRE activation in presence of a co-activator, retinoic acid. Specifically, HepG2 cells were transfected with expression vectors for either human or rat PPARα and the PPARRE-luciferase reporter plasmid. After 24 hours, the cells were trypsanized and subsequently seeded in 96-well clear-bottom plates at a density of 1.0×10^5 cells/ml.

[5] = 50 mg/kg b.i.d. p.o., second experiment

EC50 (rat PPARα): ~200 µM
SMILES: Cc1nc(-c2ccc(Cl)cc2)oc1COC(C)(C)C(=O)O [romazarit, 2-[[2-(4-chlorophenyl)-4-methyl-5-oxazolyl]methoxy]-2-methylpropanoic acid]
plasma triglycerides ([1]; 5 mg/kg b.i.d. p.o., initial experiment): also apparent
plasma triglycerides ([1]; 15 mg/kg b.i.d. p.o., second experiment): lowered plasma triglycerides to a degree that was intermediate
plasma triglycerides ([1]; 50 mg/kg b.i.d. p.o., initial experiment): highly pronounced
plasma cholesterol esters [1, 5]: generally similar to those seen with the same dose in the initial experiment
plasma triglycerides [1, 5]: generally similar to those seen with the same dose in the initial experiment
plasma cholesterol esters ([1]; 5 and 50 mg/kg b.i.d. p.o., initial experiment): increased
HDL [2]: did not significantly affect
total cholesterol [2]: did not significantly affect
total plasma triglycerides [2]: tendency likewise to reduce total plasma triglycerides at higher doses
weight gain [2]: None of the romazarit or fenofibrate treatments reduced weight gain
whole blood glucose levels [2]: no such effect was seen
potency in lowering plasma free fatty acids compared to the other compounds tested ([3]; 50 and 100 mg/kg): superior potency
plasma cholesterol esters ([3]; 50 and 100 mg/kg (romazarit also 10 mg/kg)): increased at least some fractions of plasma cholesterol esters
plasma free fatty acids ([3]; romazarit 10, 50 and 100 mg/kg): lowered plasma free fatty acids in a dose-dependent manner
plasma triglycerides ([3]; romazarit 10, 50 and 100 mg/kg): significantly lowered
glucose in plasma ([4]; once daily p.o. 7 days): appeared to lower
insulin in plasma ([4]; once daily p.o. 7 days): appeared to lower
plasma glucagon ([4]; once daily p.o. 7 days): lowered
plasma adiponectin ([4]; once daily p.o. 7 days, 10, 50 and 100 mg/kg): dose-dependently increased
